Values joined by “and” are separate entries in the source; they are usually repeats but may differ in a detail not shown here. Equal entries are not always repeated.
Legend:
[1] = system: bloodstream trypomastigotes form Y strain of T. cruzi; assay: In vitro trypanocidal assay; format: cell-based; conditions: Trypanosoma cruzi, read-out: IC50/24 h (concentration that produces 50% lysis of the parasites), trypomastigote forms, 37 °C
Experimental: In vitro trypanocidal assay - To accomplishment of the experiments were used bloodstream trypomastigotes form Y strain of T. cruzi, obtained at the peak of the parasitemia (7th day after infection) of infected Swiss albino mice.[34] The trypomastigotes underwent a differential centrifugation process for the separation of erythrocytes, leukocytes and concentration of the parasites in the plasma, and the purified parasites were resuspended in RPMI medium and cell concentration was determined by counting in the Neubauer chamber. Stock solution of each compound was prepared in dimethyl sulfoxide (DMSO), and the assays were performed in Dulbecco’s modified Eagle medium in 96-well plates. In the first well was placed twice the highest desired concentration of each compound, in a final volume of 200 μL, in the following wells were added 100 μL of medium supplemented with 10% foetal bovine serum (FBS) and 2% L-glutamine. Subsequently, 100 μL of parasite suspension (10^6 trypomastigotes) were added, resulting in a final concentration of 5 x 10^6 parasites/mL, incubated for 24 h at 37 °C under a 5% CO2 atmosphere and quantified in Neubauer’s chamber by light microscopy. […] At least four independent experiments were performed and the mean and standard deviation were calculated. Benznidazole (1) was used as a reference drug. The experiments were performed in accordance with the guidelines established by the Oswaldo Cruz Foundation Committee of Ethics for the Use of Animals (L 038/2018).

Chagas disease = conditions: cited from earlier work
[2] = system: whole human blood cells (WHBC); assay: In vitro cytokinesis-block micronucleus assay (CBMN) with whole human blood cells; conditions: for MN formation compared to solvent-control: concentration range analysed; for result in the CBMN: overall call; for MNC in 2,000 BNC: positive control
Experimental: In vitro cytokinesis-block micronucleus assay (CBMN) with whole human blood cells (WHBC) - Heparinised WHBC samples were obtained by venipuncture from volunteers as described above. […] WHBC cultures exposed to mitomycin C (MMC) (1.0 µg/mL in water) (Bristol, USA) for 2 h or to N-deacetyl-N-methylcolchicine in water (Demecolcine: Sigma-Aldrich) 0.02 µg/mL for 28 h were used as positive control cultures. After the treatment, the WHBC cultures were centrifuged (900 rpm, 10 min) and washed with 5 mL PBS. […] CytB has cytokinesis-block activity leading to the formation of binucleate cells. […] The fixed cell suspension was dropped on a clean glass slide and the slide was air-dried on a heating plate (60 °C). Air-dried slides were stained with 60 µg/mL acridine orange in Sörensen buffer (0.03 M KH2PO4, 0.03 M Na2HPO4) for 3s, then they were embedded in distilled water and covered with a coverslip. MN showing bright green fluorescence were analysed using a fluorescence microscope at 400 X magnification. MN were scored in 2,000 binucleated cells (BNC) for culture and the number of the micronucleate cells (MNC) in 2,000 BNC was determined. Cytotoxicity was measured using the cytokinesis-block proliferation index (CBPI) and the replication index (RI) which were calculated from 500 cells. The CBPI indicates the average number of nuclei per cell, and may be used to calculate cell proliferation. The RI indicates the relative number of cell cycles per cell during the period of exposure to cytoB in treated cultures compared to control cultures and can be used to calculate the % cytostasis. CBPI was calculated according to the formula: CBPI = [(No. mononucleate cells) + (2 x No. binucleate cells) + (3 x No. multinucleate cells)] / N, where N indicates the total number of cells scored. RI (%) was calculated according to the formula:
RI %=((No. binucleate cells) + (2 x No. multinucleate cells)) ÷ (Total number of cells)T/((No. binucleate cells) + (2 x No. multinucleate cells)) ÷ (Total number of cells)C x 100
where T indicates treated cultures and C control cultures
Cytotoxicity was evidenced in the occurrence of reduction in CBPI or RI of cultures treated by test substances when compared to control cultures. The measurement of cytotoxicity was used to select the concentrations of the test substance to be analysed for the presence of MN. […] However, it was adopted in this work as the maximum concentration in CBMN one that induced a proliferation inhibition not exceeding about 50% established by ICH S2 (R1) for lymphocyte cultures.
The chi-square test for trend was performed to analyse if the increase of MNC was concentration-related.[30]

[3] = system: whole human blood cells (WHBC); assay: In vitro alkaline comet assay (CA) in whole human blood cells; format: cell-based
Experimental: Methyl methane-sulfonate (MMS) (160 μM) (Sigma-Aldrich) was used as a positive control. […] Slides were prepared, lysed (pH 10; 4-5 °C) and processed as described earlier,[32] using a time of alkali denaturation of 20 min and electrophoresis (0.86 V/cm and 300 mA) of 20 min at a pH > 13. […] The DNA damage was expressed as percentage of cells into four classes and as arbitrary units (AU) according to the formula: AU = (0 […] 3), where n = the number of cells analysed in each class. The total DNA damage score in AU (TAU) for 200 cells can range from 0 TAU (200 undamaged cells) to 600 TAU (all cells maximally damaged).

[4] = system: whole human blood cells (WHBC); assay: Cytotoxicity assay (FDA/EtBr) in whole human blood cells; conditions: for percentage decrease in cell viability: 2 h, 37 °C; for lethality variation range: 2 h at 37 °C, compared to solvent-control
Experimental: In vitro treatment and cytotoxicity assay in whole human blood cells (WHBC) - Heparinised WHBC was obtained by venipuncture from healthy young non-smoking volunteers with no known recent exposures to genotoxic chemicals or radiation immediately before the assays. […] The cytotoxicity assay aims to establish the degree of cell viability after treatment with nitroimidazoles to define the ranges concentrations to be tested in the in vitro CA. Cell viability was determined at the end of the treatment using the fluorescein diacetate (FDA)/ethidium bromide (EtBr)-assay, in which viable cells are labelled in green, while dead ones display orange-stained nuclei. WHBC (50 μL) was mixed with an equal volume of the freshly prepared staining solution consisting of 30 μg/mL FDA plus 8 μg/mL EtBr in phosphate-buffered saline (PBS). Samples (50 μL) were spread on a microscope slide and covered with a coverslip and observed using a fluorescence microscope. Two hundred cells were analysed for each treatment.[32] The research project involving the use of human blood samples was approved by the Committee on Ethics in Research with Human Beings - CEP Fiocruz/IOC (CAAE: 41684815.3.0000.5248) under the consolidated opinion of CEP No. 1066061.

Salmonella typhimurium = conditions: cited from earlier work
[5] = 10,000 μM, relative to solvent-control

O=C(Cn1ccnc1[N+](=O)[O-])NCc1ccccc1 [Benznidazole, benznidazole]
IC50 [1]: 8.8 ± 1.1 µM
serological cure (Chagas disease; adults with late chronic infection): 5-20%
digestive intolerance (Chagas disease; adverse event): 5-15%
general symptoms such as anorexia, asthenia, headache, and sleep disturbances (Chagas disease; adverse event): 40%
skin rash (Chagas disease; adverse event): 29-50%
discontinuation of treatment (Chagas disease; due to adverse events): 9-29%

Cn1cnc([N+](=O)[O-])c1Nc1nnc(C(F)(F)F)[nH]1 [Compound 5]
CBPI ([2]; 150 µM, 4 h): 1.310
NMNC/2000 binucleated cells ([2]; 150 µM, 4 h): 20
RI (%) ([2]; 150 µM, 4 h): 151%
CBPI ([2]; 640 µM, 4 h): 1.228
NMNC/2000 binucleated cells ([2]; 640 µM, 4 h): 8
RI (%) ([2]; 640 µM, 4 h): 111%
CBPI ([2]; 1,600 µM, 4 h): 1.192
NMNC/2000 binucleated cells ([2]; 1,600 µM, 4 h): 20
RI (%) ([2]; 1,600 µM, 4 h): 95%
CBPI ([2]; 4,000 µM, 4 h): 1.340
NMNC/2000 binucleated cells ([2]; 4,000 µM, 4 h): 24
RI (%) ([2]; 4,000 µM, 4 h): 167%
CBPI ([2]; 10,000 µM, 4 h): 1.152
NMNC/2000 binucleated cells ([2]; 10,000 µM, 4 h): 36
RI (%) ([2]; 10,000 µM, 4 h): 78%
reduction of CBPI [2, 5]: 36%
reduction of RI [2, 5]: 22%
MN formation compared to solvent-control ([2]; 4 h): did not induce a significant increase in MN formation
result in the CBMN [2]: negative
IC50 [1]: > 500 µM
result in the in vitro CA [3]: positive
concentrations at which a significant (p < 0.05) genotoxic effect was observed ([3]; human, 2 h): > 610 µM
percentage decrease in cell viability ([4]; 149 µM): 0%
percentage decrease in cell viability ([4]; 238 µM): 0%
percentage decrease in cell viability ([4]; 382 µM): 0%
percentage decrease in cell viability ([4]; 610 µM): 0%
percentage decrease in cell viability ([4]; 1,562 µM): 0%
percentage decrease in cell viability ([4]; 2,500 µM): 0%
percentage decrease in cell viability ([4]; 4,000 µM): 2.0%
percentage decrease in cell viability ([4]; 6,400 µM): 1.0%
percentage decrease in cell viability ([4]; 10,000 µM): 2.0%
lethality variation range ([4]; 149-10,000 µM): 1-4%

Cn1cnc([N+](=O)[O-])c1-n1cccn1 [Compound 6]
CBPI ([2]; 150 µM, 4 h): 1.184
NMNC/2000 binucleated cells ([2]; 150 µM, 4 h): 32
RI (%) ([2]; 150 µM, 4 h): 148%
CBPI ([2]; 640 µM, 4 h): 1.204
NMNC/2000 binucleated cells ([2]; 640 µM, 4 h): 12
RI (%) ([2]; 640 µM, 4 h): 132%
CBPI ([2]; 1,600 µM, 4 h): 1.134
NMNC/2000 binucleated cells ([2]; 1,600 µM, 4 h): 16
RI (%) ([2]; 1,600 µM, 4 h): 114%
CBPI ([2]; 4,000 µM, 4 h): 1.068
NMNC/2000 binucleated cells ([2]; 4,000 µM, 4 h): 12
RI (%) ([2]; 4,000 µM, 4 h): 56%
CBPI ([2]; 10,000 µM, 4 h): 1.036
RI (%) ([2]; 10,000 µM, 4 h): 24%
maximum concentration used in MN analysis (inducing in the maximum 50% reduction of CBPI or RI) ([2]; 4 h, relative to solvent-control): 4,000 μM
MN formation compared to solvent-control ([2]; 4 h): did not induce a significant increase in MN formation
result in the CBMN [2]: negative
concentration with cytotoxic activity (Salmonella typhimurium; TA98): 50 µg/mL
concentration with mutagenicity in TA100 (Salmonella typhimurium; TA100, absence and presence of S9 mixture, highest tested concentration): 50 µg/mL
concentration range with cytotoxic activity (Salmonella typhimurium; TA100 and TA1535 strains): 1.0 to 50 µg/mL
IC50 [1]: > 500 µM
result in the in vitro CA [3]: positive
concentration with significant (p < 0.05) DNA damage ([3]; human, 2 h): 6,400 µM
cells with class 1 DNA damage ([3]; human, 2 h, 6400 µM): 10.5%
percentage decrease in cell viability ([4]; 149 µM): 0%
percentage decrease in cell viability ([4]; 238 µM): 4.0%
percentage decrease in cell viability ([4]; 382 µM): 0%
percentage decrease in cell viability ([4]; 610 µM): 0%
percentage decrease in cell viability ([4]; 1,562 µM): 0%
percentage decrease in cell viability ([4]; 2,500 µM): 6%
percentage decrease in cell viability ([4]; 4,000 µM): 0%
percentage decrease in cell viability ([4]; 6,400 µM): 0%
lethality variation range ([4]; 149-6,400 µM): 1-4%

CN[C@H]1CCc2cc(OC)c(OC)c(OC)c2-c2ccc(OC)c(=O)cc21 [Demecolcine, N-deacetyl-N-methylcolchicine, reference compound]
MNC in 2,000 BNC ([2]; 0.02 μg/mL, 28 h): 37 and 42 and 30

CO[C@@]12[C@H](COC(N)=O)C3=C(C(=O)C(C)=C(N)C3=O)N1C[C@@H]1N[C@@H]12 [MMC, mitomycin C, reference compound]
MNC in 2,000 BNC ([2]; 1.0 μg/mL, 2 h): 38 and 56 and 40

COS(C)(=O)=O [MMS, Methyl methane-sulfonate, reference compound]
cells with class 3 DNA damage ([3]; 160 µM): 87.7%
TAU mean value (total DNA damage score) ([3]; 160 μM, positive control, p < 0.001 vs control): 554.2 ± 9.9 TAU

CC1CS(=O)(=O)CCN1/N=C/c1ccc([N+](=O)[O-])o1 (centres unmarked) [Nfx, nifurtimox]
discontinuation of the treatment (Chagas disease; adults with chronic infection): 14-75%
frequency of adverse effects (Chagas disease; adults with chronic infection): 43.0-97.5%
